Columns and labels:
[1] = test system: NMDARs; assay: NMDAR currents in cultured cortical neurons of WT and TRPM2-KO mice (whole cell recording); assay type: cell-based, mouse
Method: FIGS. 4O and 4P show the effects of stausporine on NMDAR currents recorded from cortical neurons cultured for 14 days. FIG. 4O show representative NMDAR currents elicited at −80 mV by 10 μM NMDA in WT and TRPM2-KO (gM2KO) neurons treated with or without Stausporine at 1 μM for overnight. FIG. 4P show the average current amplitude (ns, p>0.05; **, p<0.01; ANOVA, Bonferroni's test; mean±SEM, n=11, 10, 10, 12 neurons from 2 mice respectively).
FIG. 4S show representative NMDAR currents elicited by NMDA in WT and TRPM2-KO neurons treated with or without endosidin2 at 1 μM for overnight.
FIGS. 5I-5K show the effects of TAT-EE3 on PKC induced changes of NMDAR currents recorded in cortical neurons of WT and TRPM2-KO. Neurons were incubated with 10 μM TAT-SC or TAT-EE3 for overnight before current recording. FIG. 5I show representative NMDAR currents elicited by 10 μM NMDA at −80 mV before and after PMA (1 μM) perfusion for 20 s. TAT-SC or TAT-EE3 10 μM was included in the pipette solution for current recording.
FIGS. 6A and 6B show the effects of TAT-EE3 on NMDAR currents in WT and gM2KO cortical neurons cultured for 14 days. […] TAT-SC or TAT-EE3 10 μM was included in the pipette solution during current recording.
(§1) Mice pups at P0 were euthanized based on animal protocol. Whole brain was dissected out immediately and immersed in ice-cold Hank's Balanced Salt Solution (HBSS). Meninges were removed thoroughly, and tissue of different brain areas was taken based on purposes. Brain tissue was cut into small pieces and digested with 0.25% trypsin (Thermal Fisher Scientific, 15090-046) in HBSS at 37° C. for 20 min. Digestion solution was quickly removed, and tissue pellets are washed with Neurobasal® Medium (Thermal Fisher Scientific, 21103-049) for 3 times. Cells were resuspended with appropriate amount of Neurobasal® Medium supplemented with 2% B27® supplement (Thermal Fisher Scientific, 17504-044), 3% horse serum (Thermal Fisher Scientific, 16050114), 0.25% L-glutamine (Thermal Fisher Scientific, 25030-081) and 1% penicillin/streptomycin (Thermal Fisher Scientific, 15140-122). Isolated cells were counted and plated on coverslips pre-coated with poly-L-lysine (Sigma-Aldrich, P4707) at a density about 500×10^3 cells/cm2 for OGD and H2O2 treatment, and 100×10^3 cells/cm2 for current recording. Cytosine arabinoside (Sigma-Aldrich, C1768) was added to maintain a concentration at 1 μM to inhibit the proliferation of non-neuronal cells. 24 h after plating, culture medium was changed to Neurobasal® Medium supplemented with 2% B27® supplement, 0.25% L-glutamine and 1% penicillin/streptomycin. The concentration of Cytosine arabinoside (araC) was increased to 2 μM. Medium was changed every 3 days. OGD and H2O2 treatment was conducted at 7th day of culture, and current recording was conducted at 7th, 10th and 14th day of culture.
Whole cell currents were recorded using an Axopatch 200B amplifier. Data were digitized at 10 or 20 kHz and digitally filtered offline at 1 kHz. Patch electrodes were pulled from borosilicate glass and fire-polished to a resistance of ˜3 MΩ when filled with internal solutions. Series resistance (Rs) was compensated up to 90% to reduce series resistance errors to <5 mV. Cells in which Rs was >10 MΩ were discarded (Du, J., Xie, J., and Yue, L. (2009). Modulation of TRPM2 by acidic pH and the underlying mechanisms for pH sensitivity. J Gen Physiol 134, 471-88).
For heterologous expression, transfected HEK-293 cells were identified by GFP fluorescence. TRPM2 current recording in transfected HEK-293T cells was performed as we previously reported (Du, J., Xie, J., and Yue, L. (2009). Intracellular calcium activates TRPM2 and its alternative spliced isoforms. Proceedings of the National Academy of Sciences 107, 7239-44; Du, J., Xie, J., and Yue, L. (2009). Modulation of TRPM2 by acidic pH and the underlying mechanisms for pH sensitivity. J Gen Physiol 134, 471-88). […]

[2] = test system: cultured cortical neurons; assay: OGD-induced Ca2+ overload and neuronal death, Fura-2 ratio Ca2+ imaging; assay type: cell-based, mouse; conditions: for OGD-mediated neuronal death: WT neurons, 10 μM overnight
Method: FIGS. 6C-6E show the effects of TAT-EE3 on Ca2+ overload and neuronal death caused by OGD. Cultured WT and gM2KO cortical neurons were treated with 10 μM TAT-SC and TAT-EE3 for overnight before experiments.
as §1
Oxygen-glucose deprivation (OGD) was achieved by replace the glucose in aCSF with sucrose, and 95% N2 and 5% CO2 was used to equilibrate sucrose-aCSF to displace oxygen. This condition typically yielded a pO2 of <5 mm Hg in the imaging chamber (Thompson, R. J., Zhou, N., and Mac Vicar, B. A. (2006). Ischemia opens neuronal gap junction hemichannels. Science 312, 924-27). At least 10 min was allowed for neurons to adapt to the change from culture medium to aCSF before OGD was applied.
Changes of intracellular Ca2+ was measured using ratio Ca2+ imaging as we describe previously (Du, J., Xie, J., Zhang, Z., Tsujikawa, H., Fusco, D., Silverman, D., Liang, B., and Yue, L. (2010). TRPM7-mediated Ca2+ signals confer fibrogenesis in human atrial fibrillation. Circulation research 106, 992-1003). In brief, Fura-2 AM (Thermal Fisher Scientific, F1221) was dissolved in DMSO to make a stock concentration at 1 mM. Pre-warmed Neurobasal® Medium (Thermal Fisher Scientific, 21103-049) was used to dilute Fura-2 AM to a working concentration at 2.5 μM, and 0.02% Pluronic™ F-127 (Thermal Fisher Scientific, P3000MP) was added to facilitate loading of Fura-2 AM. Cells plated on 25 mm glass coverslips were washed using pre-warmed PBS for 3 times, and then incubated with 2 ml of Fura-2 AM working solution for 30˜45 min at 37° C. […]
Ca2+ influx was measured by perfusing the cells with Tyrode's solution for transfected HEK293T cells or aCSF for neurons under different conditions. […] Fluorescence intensities at 510 nm with 340 nm and 380 nm excitation were collected at a rate of 1 Hz using CoolSNAP HQ2 (Photometrics) and data were analyzed using NIS-Elements (Nikon). […]

[3] = WT neurons incubated with 10 μM peptide overnight, PMA 1 μM 20 s
[4] = pretreatment 10 μM overnight, F340/380

Substance: TAT-EE3: membrane permeable disrupting peptide, sequence YGRKKRRQRRREEDTDSSEEMLALAEE (SEQ ID NO: 4)
- NMDAR currents in neurons from TRPM2-KO mice ([1]; 10 μM peptide overnight and in pipette, neurons cultured 14 days): not from TRPM2-KO mice
- NMDAR currents in neurons from WT mice ([1]; 10 μM peptide overnight and in pipette, neurons cultured 14 days, 10 μM NMDA, -80 mV): efficiently reduced
- NMDAR current amplitude before and after PMA perfusion [1, 3]: much smaller
- increase of NMDAR current amplitude induced by PMA [1, 3]: significantly smaller than that in neurons incubated with TAT-SC
- PMA-induced changes of NMDAR currents, TAT-SC vs TAT-EE3 ([1]; neurons from TRPM2-KO mice, 10 μM peptide overnight): no difference
- OGD-mediated neuronal death ([2]; 30 min OGD, WT without TAT-EE3 10.6%): 3.6%
- OGD-mediated neuronal death ([2]; 60 min OGD, WT without TAT-EE3 47.6%): 9.9%
- OGD-mediated neuronal death ([2]; 90 min OGD, WT without TAT-EE3 70.5%): 45.2%
- OGD-induced changes of intracellular Ca2+ in TRPM2-KO neurons [2, 4]: not in TRPM2-KO neurons
- OGD-induced changes of intracellular Ca2+ in WT neurons [2, 4]: significantly reduced
